Assay results from ChEMBL document CHEMBL1126173, “Molecular recognition of amiloride analogs: a molecular electrostatic potential analysis. 1. Pyrazine ring modifications” (J Med Chem, 1992).

How the values were obtained:
Settings in all cases: rana ridibundus
[1] = Inhibitory activity against epithelial sodium channels- NA+/H+ antiporter, Na+/ca+2 exchanger, Na+/ca+2 channels, K+ channel, nicotinic acetylcholine receptor and Na+/K+ ATPase (microscopic dissociation constant); type: ADME
[2] = Inhibitory activity against epithelial sodium channels- NA+/H+ antiporter, Na+/ca+2 exchanger, Na+/ca+2 channels, K+ channel, nicotinic acetylcholine receptor and Na+/K+ ATPase
[3] = Blocking time for inhibition of epithelial sodium channels- NA+/H+ antiporter, Na+/ca+2 exchanger, Na+/ca+2 channels, K+ channel, nicotinic acetylcholine receptor and Na+/K+ ATPase
[4] = Inhibitory activity against epithelial sodium channels- NA+/H+ antiporter, Na+/ca+2 exchanger, Na+/ca+2 channels, K+ channel, nicotinic acetylcholine receptor and Na+/K+ ATPase(microscopic dissociation constant)

SMILES	Koff [1]	Kon [2]	Block time [3]	Koff [4]
Nc1nc(N)c(C(=O)NC(N)N)nc1I	17.41 s⁻¹	1.143e+07 M⁻¹ s⁻¹	57 ms	–
Nc1nc(Cl)c(Cl)nc1C(=O)NC(N)N	151.1 s⁻¹	5.16e+06 M⁻¹ s⁻¹	7 ms	–
Nc1ncc(Cl)nc1C(=O)NC(N)N	10.89 s⁻¹	3.32e+06 M⁻¹ s⁻¹	92 ms	–

Next, values leading:

Koff [1]	Kon [2]	Block time [3]	Koff [4]	SMILES
32.2 s⁻¹	1.354e+07 M⁻¹ s⁻¹	31 ms	–	Nc1nc(N)c(C(=O)NC(N)N)nc1F
3.93 s⁻¹	1.317e+07 M⁻¹ s⁻¹	255 ms	–	Nc1nc(N)c(C(=O)NC(N)N)nc1Cl
176.25 s⁻¹	1.447e+07 M⁻¹ s⁻¹	6 ms	–	Nc1cnc(C(=O)NC(N)N)c(N)n1
–	1.419e+07 M⁻¹ s⁻¹	179 ms	5.58 s⁻¹	Nc1nc(N)c(C(=O)NC(N)N)nc1Br
